Source: patent publication US12522596B2, “Compounds as GLP-1R agonists” (Terns Pharmaceuticals, Inc., priority 2021, dated 2026)
Several values for one entry are separate records, joined by “and”; a condition that tells them apart may be missing. Equal values may be shown once. Read-outs that look alike come from different tables or passages of the source. Marks after values point to notes of the source that are not given here.

Assay: Pharmacokinetics in hGLP-1R mice after oral dosing
Assay type: in vivo, male C57BL/6J hGLP-1R mouse
Experimental: IPGTT (120 min)—PK bleeding: 40 μL blood samples (all treatment groups) were collected from mice under the jaw at IPGTT-120 min after blood glucose measurement into pre-chilled EDTA-2K tubes. Blood samples were processed for plasma by centrifugation at 4° C., 3200×g for 10 min. 15 μL plasma was stored at −80° C. for PK analysis. From 4 mice in Group 7 of the PD cohort, whole brain was collected after blood is harvested at 120 min post dose, rinsed with saline and patted dry and placed into a pre-weighed tube and stored at −80° C. collected for PK analysis.
PK bleeding group design is described in Table 9.
PK bleeding: 30 μL blood was collected at 0.25, 0.5, 1, 2, 4, and 8 h. Blood samples were processed for plasma by centrifugation at 4° C., 3200×g for 10 min. 12 μL plasma was collected at −80° C. for further analysis. From 3 mice in Group 7 of the PK cohort, whole brain was collected after blood is harvested at 8 hr post dose, rinsed with saline and patted dry and placed into a pre-weighed tube and stored at −80° C. collected for PK analysis.
For plasma: An aliquot of 3 μL sample was protein precipitated with 60 μL internal standard (100 ng/mL Labetalol & 100 ng/ml Dexamethasone & 100 ng/ml Tolbutamide & 100 ng/mL Verapamil & 100 ng/ml Glyburide & 100 ng/ml Celecoxib in ACN) and then the mixture was vortex-mixed for 10 min at 800 rpm and centrifuged for 15 min at 3220×g, 4° C.
The linear/log trapezoidal rule was applied in obtaining the PK parameters. Individual plasma concentration values that were below the lower limit of quantitation (LOQ) were excluded from the PK parameter calculation. The nominal dose levels and nominal sampling times were used in the calculation of all pharmacokinetic parameters.

[1] = hGLP-1R mouse plasma, PO 0.3 mg/kg, individual mice, 0.3 mg/kg
[2] = hGLP-1R mouse plasma, PO 0.3 mg/kg, mean
[3] = hGLP-1R mouse plasma, PO 1 mg/kg, individual mice, 1 mg/kg
[4] = hGLP-1R mouse plasma, PO 1 mg/kg, mean
[5] = hGLP-1R mouse plasma, PO 3 mg/kg, individual mice, 3 mg/kg
[6] = hGLP-1R mouse plasma, PO 3 mg/kg, mean

In the case of `N#Cc1ccc(COc2cccc(C3CCN(Cc4nc5ccc(C(=O)O)cc5n4Cc4cncs4)CC3)n2)c(F)c1` [Compound 2], the “higher AUClast than Reference Compound A” value (hGLP-1R mice, PO 0.3 mg/kg) was “four-fold”, the “higher Cmax than Reference Compound A” value (hGLP-1R mice, PO 0.3 mg/kg) was “three-fold” and the “higher AUClast than Reference Compound A” value (hGLP-1R mice, PO 1.0 mg/kg) was “approximately 4.6 fold”. The “higher Cmax than Reference Compound A” value (hGLP-1R mice, PO 1.0 mg/kg) was “approximately 5.7 fold”, the “increase in exposure values over a ten-fold increase in dose” value (hGLP-1R mice, PO 0.3 to 3 mg/kg) was 22 fold and the “increase of exposure with dose (dose proportionality)” value (hGLP-1R mice, PO, Reference Compound A 0.3-1 mg/kg, Compound 2 0.3-3 mg/kg) was “greater than proportional manner”. The Concentration (hGLP-1R mouse plasma collected at 120 min (IPGTT cohort), PO 0.3 mg/kg, individual animals, 0.3 mg/kg) was 26.1 ng/mL and 11.5 ng/mL and 15.0 ng/mL and 31.4 ng/mL and 17.3 ng/mL and 17.2 ng/mL and 13.1 ng/mL, the Concentration (hGLP-1R mouse plasma collected at 120 min (IPGTT cohort), PO 1 mg/kg, individual animals, 1 mg/kg) was 61.2 ng/mL and 53.6 ng/mL and 148 ng/mL and 60.4 ng/mL and 60.3 ng/mL and 48.9 ng/mL and 56.3 ng/mL and the Concentration (hGLP-1R mouse plasma collected at 120 min (IPGTT cohort), PO 3 mg/kg, individual animals, 3 mg/kg) was 159 ng/mL and 227 ng/mL and 555 ng/mL and 301 ng/mL and 239 ng/mL and 229 ng/mL and 231 ng/mL. The Concentration (hGLP-1R mouse plasma, PO 0.3 mg/kg, 0.25 h, individual animals, 0.3 mg/kg) was 66.8 ng/mL and 116 ng/mL and 52.2 ng/mL, the Concentration (hGLP-1R mouse plasma, PO 0.3 mg/kg, 0.5 h, individual animals, 0.3 mg/kg) was 60.3 ng/mL and 118 ng/mL and the Concentration (hGLP-1R mouse plasma, PO 0.3 mg/kg, 1 h, individual animals, 0.3 mg/kg) was 49.2 ng/mL and 55.8 ng/mL. For the same molecule, the Concentration (hGLP-1R mouse plasma, PO 0.3 mg/kg, 2 h, individual animals, 0.3 mg/kg) was 18.2 ng/mL and 6.53 ng/mL and 7.14 ng/mL, the Concentration (hGLP-1R mouse plasma, PO 0.3 mg/kg, 4 h, individual animals, 0.3 mg/kg) was 7.15 ng/mL and 1.84 ng/mL and 2.23 ng/mL and the Concentration (hGLP-1R mouse plasma, PO 0.3 mg/kg, 8 h, individual animals, 0.3 mg/kg) was 1.64 ng/mL and BQL. For the same molecule, the AUC0-inf [1] was 90.4 ng·h/mL and 120 ng·h/mL, the AUC0-last [1] was 87.0 ng·h/mL and 117 ng·h/mL and the AUCExtra [1] was 5.66% and 3.76% and 1.86%. For the same molecule, the AUMCExtra [1] was 25.0% and 22.4% and 10.0%, the Cmax [1] was 66.8 ng/mL and 118 ng/mL and the MRT0-inf [1] was 2.49 h and 1.69 h and 0.928 h. The MRT0-last [1] was 1.98 h and 1.36 h and 0.851 h, the T1/2 [1] was 2.08 h and 1.44* h and 0.691* h and the Tlast [1] was 8.00 h (2×) and 4.00 h. It also gave a Tmax [1] of 0.250 h, an AUCExtra [2] of 3.76% and an AUMCExtra [2] of 19.1%. For the same molecule, the Concentration (hGLP-1R mouse plasma, PO 1 mg/kg, 0.25 h, individual animals, 1 mg/kg) was 208 ng/mL and 224 ng/mL, the Concentration (hGLP-1R mouse plasma, PO 1 mg/kg, 0.5 h, individual animals, 1 mg/kg) was 256 ng/mL and 265 ng/mL and the Concentration (hGLP-1R mouse plasma, PO 1 mg/kg, 1 h, individual animals, 1 mg/kg) was 183 ng/mL and 156 ng/mL. For the same molecule, the Concentration (hGLP-1R mouse plasma, PO 1 mg/kg, 2 h, individual animals, 1 mg/kg) was 77.6 ng/mL and 36.6 ng/mL and 31.7 ng/mL, the Concentration (hGLP-1R mouse plasma, PO 1 mg/kg, 4 h, individual animals, 1 mg/kg) was 8.59 ng/mL and 6.36 ng/mL and the Concentration (hGLP-1R mouse plasma, PO 1 mg/kg, 8 h, individual animals, 1 mg/kg) was 4.90 ng/mL and 6.23 ng/mL and 3.07 ng/mL. The Tlast (hGLP-1R mouse plasma, PO 1 mg/kg, individual mice) was 8.00 h, the AUC0-inf [3] was 366 ng·h/mL and 326 ng·h/mL and the AUC0-last [3] was 352 ng·h/mL and 320 ng·h/mL. For the same molecule, the AUCExtra [3] was 1.78% and 3.97% and 1.84%, the AUMCExtra [3] was 11.9% and 22.6% and 12.9% and the Cmax [3] was 256 ng/mL and 265 ng/mL. For the same molecule, the MRT0-inf [3] was 1.81 h and 1.42 h, the MRT0-last [3] was 1.46 h and 1.26 h and the T1/2 [3] was 1.62* h and 1.36* h. It also gave an AUCExtra [4] of 2.53%, an AUMCExtra [4] of 15.8% and a Tlast [4] of 8.00 h. The Concentration (hGLP-1R mouse plasma, PO 3 mg/kg, 0.25 h, individual animals, 3 mg/kg) was 823 ng/mL and 1030 ng/mL and 2870 ng/mL, the Concentration (hGLP-1R mouse plasma, PO 3 mg/kg, 0.5 h, individual animals, 3 mg/kg) was 982 ng/mL and 937 ng/mL and 3450 ng/mL and the Concentration (hGLP-1R mouse plasma, PO 3 mg/kg, 1 h, individual animals, 3 mg/kg) was 592 ng/mL and 387 ng/mL and 1990 ng/mL. The Concentration (hGLP-1R mouse plasma, PO 3 mg/kg, 2 h, individual animals, 3 mg/kg) was 157 ng/mL and 100 ng/mL and 655 ng/mL, the Concentration (hGLP-1R mouse plasma, PO 3 mg/kg, 4 h, individual animals, 3 mg/kg) was 48.1 ng/mL and 35.1 ng/mL and 170 ng/mL and the Tlast (hGLP-1R mouse plasma, PO 3 mg/kg, individual mice) was 8.00 h. For the same molecule, the AUC0-inf [5] was 1923 ng·h/mL and 1229 ng·h/mL and 4707 ng·h/mL, the AUC0-last [5] was 1497 ng·h/mL and 1154 ng·h/mL and 4673 ng·h/mL and the AUCExtra [5] was 22.2% and 6.12% and 0.710%. The AUMCExtra [5] was 63.8% and 30.6% and 4.74%, the Cmax [5] was 982 ng/mL and 1030 ng/mL and 3450 ng/mL and the MRT0-inf [5] was 4.39 h and 2.08 h and 1.46 h. For the same molecule, the MRT0-last [5] was 1.54 h, the T1/2 [5] was 3.21* h and 1.68* h and 1.19 h and the Tmax [5] was 0.250 h. For the same molecule, the AUCExtra [6] was 9.68%, the AUMCExtra [6] was 33.0% and the Tlast [6] was 8.00 h. It also gave an AUC(0-t) (male, C57BL/6J hGLP-1R, mouse, plasma, po, 0.3 mg/kg, hGLP-1R mice, total, PO 0.3 mg/kg, read-out: AUClast Mean) of 107 ng·h/mL, a Cmax (male, C57BL/6J hGLP-1R, mouse, plasma, po, 0.3 mg/kg, hGLP-1R mice, total, PO 0.3 mg/kg, read-out: Cmax Mean) of 82.7 ng/mL and a half-life (male, C57BL/6J hGLP-1R, mouse, plasma, po, 0.3 mg/kg, hGLP-1R mice, total, PO 0.3 mg/kg, read-out: T1/2 (converted)) of 1.4 h. The Tmax (male, C57BL/6J hGLP-1R, mouse, plasma, po, 0.3 mg/kg, hGLP-1R mice, total, PO 0.3 mg/kg, read-out: Tmax Median) was 0.5 h, the concentration at 120 min (male, C57BL/6J hGLP-1R, mouse, plasma, po, 0.3 mg/kg, hGLP-1R mouse plasma collected at 120 min (IPGTT cohort), PO 0.3 mg/kg, read-out: Mean Concentration) was 18.8 ng/mL and the concentration at 0.25 h (male, C57BL/6J hGLP-1R, mouse, plasma, po, 0.3 mg/kg, hGLP-1R mouse plasma, PO 0.3 mg/kg, 0.25 h, read-out: Mean Concentration) was 78.3 ng/mL. For the same molecule, the concentration at 0.5 h (male, C57BL/6J hGLP-1R, mouse, plasma, po, 0.3 mg/kg, hGLP-1R mouse plasma, PO 0.3 mg/kg, 0.5 h, individual animals, read-out: Concentration) was 63.4 ng/mL.
